Laboratory results reported in paper PMC11876601 (Molecular Systems Biology, 2025).
Like-named read-outs stand apart in the source and are kept apart here.

What was measured:
[1] = test system: AsPC-1 cells; assay: Drug combination viability screen (ATPlite, 72 h); assay type: cell-based, human; set-up: key to AUC: AUC of dose-response curve; AUC∆ = AUChypothetical − AUCexperimental; Curve top / Curve bottom / Curve effect size: scale not given here; conditions: for AUC / Curve bottom / Curve effect size / Curve slope / Curve top / Library drug only (ratio) / Library drug + GEM low (ratio) / Library drug + GEM high (ratio) / Bliss_Library drug + GEM low (ratio) / Bliss_Library drug + GEM high (ratio) / Library drug only (raw) / Library drug + GEM low (raw) / Library drug + GEM high (raw): AsPC-1; for Library drug only (ratio): cell viability (library drug/vehicle); for Library drug + GEM low (ratio) / Library drug + GEM high (ratio): cell viability vs vehicle; for Bliss_Library drug + GEM low (ratio) / Bliss_Library drug + GEM high (ratio): hypothetical viability, Bliss model; for Library drug only (raw) / Library drug + GEM low (raw) / Library drug + GEM high (raw): luminescence signal; for EC50: Homo sapiens, ASPC1;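 for AUC: area under vehicle-normalized viability curve scaled 0 to 100 percent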;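 for Curve bottom: fraction of vehicle control viability from four-parameter log-logistic fit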
Experimental: Cell viability was assessed by measuring ATP levels to indicate metabolic activity.
Afterward, small amounts were transferred to 384-well intermediate plates (Greiner Bio-One GmbH, Germany). […] For drug combination screening, 1000 to 5000 cells were seeded into 384-well plates (CulturPlate™, Perkin Elmer, MA, USA) using a Multidrop™ Combi Reagent Dispenser (Thermo Scientific, MA, USA) in 50 µl medium per well 24 h prior to drug treatment (seeding densities see Appendix Table S1). […] The final DMSO concentration in each well was 0.2%. […] Eight wells per plate without library drug served as negative controls, and sixteen wells per plate containing 5 µM Staurosporine served as positive controls. Control plates not containing any drug were used to correct for incubation effects, and data quality was assessed by calculation of Z-prime of positive and negative controls according to1 Z-prime=1−3SDpos+3SDneg/[…] where SD is the standard deviation. […] Dose–response curves from the experimental and hypothetical data were compared, and shifts in AUC were used to describe combination effects (AUC∆ = AUChypothetical − AUCexperimental). […] Only combinations with R^2 > 0.8 in both conditions were considered in the synergy analysis.

[2] = test system: BxPC-3; assay: cells; set-up: ATPlite luminescence viability of PDAC cell lines, 11-dose single-agent curves, 4-parameter fit; conditions: Homo sapiens, BXPC-3, 72 h, read-out: EC50 [nM]
Summary of the method: (§1)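 cells (1000 to 5000 per well) seeded 24 h before drug addition in a combination screen at 0.2% final DMSO. Controls were drug-free wells (negative) and 5 µM staurosporine (positive).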

[3] = test system: PaTu-8988-T; assay: cells; set-up: ATPlite luminescence viability of PDAC cell lines, 11-dose single-agent curves, 4-parameter fit; conditions: Homo sapiens, PaTu 8988t, 72 h, read-out: EC50 [nM]
Summary of the method: as §1

[4] = GEM high_Bliss (hypothetical data)
[5] = GEM low_Bliss (hypothetical data)
[6] = library drug 123.46 nM + GEM 10 nM
[7] = library drug 123.46 nM + GEM 30 nM
[8] = library drug 370.37 nM + GEM 10 nM
[9] = library drug 370.37 nM + GEM 30 nM
[10] = library drug 1111.11 nM + GEM 10 nM
[11] = library drug 1111.11 nM + GEM 30 nM
[12] = library drug 3333.33 nM + GEM 10 nM
[13] = library drug 3333.33 nM + GEM 30 nM
[14] = library drug 10000 nM + GEM 10 nM
[15] = library drug 10000 nM + GEM 30 nM

CCN1CCN(Cc2ccc(Nc3ncc(F)c(-c4cc(F)c5nc(C)n(C(C)C)c5c4)n3)nc2)CC1 [Abemaciclib]
AUC ([1]; GEM high): 87.77%
Curve bottom ([1]; GEM high): 0.63
Curve effect size ([1]; GEM high): 0.23
Curve slope ([1]; GEM high): 0.52
Curve top ([1]; GEM high): 0.85
AUC [1, 4]: 82.66%
Curve bottom [1, 4]: -0.27
Curve effect size [1, 4]: 0.57
Curve slope [1, 4]: 0.36
Curve top [1, 4]: 0.8
AUC ([1]; GEM low): 89.92%
Curve bottom ([1]; GEM low): 0.62
Curve effect size ([1]; GEM low): 0.28
Curve slope ([1]; GEM low): 1.21
Curve top ([1]; GEM low): 0.86
AUC [1, 5]: 82.59%
Curve bottom [1, 5]: -0.23
Curve effect size [1, 5]: 0.57
Curve slope [1, 5]: 0.36
Curve top [1, 5]: 0.87
Library drug only (ratio) ([1]; library drug 123.46 nM): 0.76
Library drug only (ratio) ([1]; library drug 370.37 nM): 0.72
Library drug only (ratio) ([1]; library drug 1111.11 nM): 0.63
Library drug only (ratio) ([1]; library drug 3333.33 nM): 0.64
Library drug only (ratio) ([1]; library drug 10000 nM): 0.33
Library drug + GEM low (ratio) [1, 6]: 0.80
Library drug + GEM high (ratio) [1, 7]: 0.73
Library drug + GEM low (ratio) [1, 8]: 0.68
Library drug + GEM high (ratio) [1, 9]: 0.65
Library drug + GEM low (ratio) [1, 10]: 0.63
Library drug + GEM high (ratio) [1, 11]: 0.65
Library drug + GEM low (ratio) [1, 12]: 0.67
Library drug + GEM high (ratio) [1, 13]: 0.67
Library drug + GEM low (ratio) [1, 14]: 0.59
Library drug + GEM high (ratio) [1, 15]: 0.64
Bliss_Library drug + GEM low (ratio) [1, 6]: 0.69
Bliss_Library drug + GEM high (ratio) [1, 7]: 0.63
Bliss_Library drug + GEM low (ratio) [1, 8]: 0.65
Bliss_Library drug + GEM high (ratio) [1, 9]: 0.60
Bliss_Library drug + GEM low (ratio) [1, 10]: 0.57
Bliss_Library drug + GEM high (ratio) [1, 11]: 0.52
Bliss_Library drug + GEM low (ratio) [1, 12]: 0.58
Bliss_Library drug + GEM high (ratio) [1, 13]: 0.53
Bliss_Library drug + GEM low (ratio) [1, 14]: 0.30
Bliss_Library drug + GEM high (ratio) [1, 15]: 0.27
Library drug only (raw) ([1]; library drug 123.46 nM): 1429160
Library drug + GEM low (raw) [1, 6]: 1506080
Library drug + GEM high (raw) [1, 7]: 1369120
Library drug only (raw) ([1]; library drug 370.37 nM): 1356440
Library drug + GEM low (raw) [1, 8]: 1276520
Library drug + GEM high (raw) [1, 9]: 1223760
Library drug only (raw) ([1]; library drug 1111.11 nM): 1177560
Library drug + GEM low (raw) [1, 10]: 1187000
Library drug + GEM high (raw) [1, 11]: 1214720
Library drug only (raw) ([1]; library drug 3333.33 nM): 1196040
Library drug + GEM low (raw) [1, 12]: 1253360
Library drug + GEM high (raw) [1, 13]: 1251960
Library drug only (raw) ([1]; library drug 10000 nM): 618520
Library drug + GEM low (raw) [1, 14]: 1109040
Library drug + GEM high (raw) [1, 15]: 1201080
AUC ([1]; no GEM (single drug)): 82.59%
Curve bottom ([1]; no GEM (single drug)): -0.27
Curve effect size ([1]; no GEM (single drug)): 0.57
Curve slope ([1]; no GEM (single drug)): 0.36
Curve top ([1]; no GEM (single drug)): 0.97
EC50 ([1]; read-out: EC50): 16.5 µM
EC50 ([1]; read-out: pEC50 (converted)): 16.6 µM
EC50 [2]: 337 nM
EC50 [3]: 2850 nM
